A short description of this data set: Accelerated test (stability). The format is physicochemical. The settings on record: 40±2° C., relative humidity 75±5%; for Stability in the accelerated test (conclusion): 6 months; for Appearance and color / Content / Related substances: polyethylene film bag; for Related substances: HPLC. As to the method: In the following test, related substances were determined as follows: HPLC method was used and chromatographic conditions were as follows: C18 column using octadecylsilane bonded silica gel as the filler, isocratic elution using methanol: 0.5% glacial acetic acid solution (10:90) as the mobile phase, and detection wavelength was at 254 nm.
Crystalline Form A of Temozolomide (Form A0 prepared by the method of EXAMPLE 1) was sealed by a polyethylene film bag, placed under conditions of 40±2° C. and a relative humidity of 75±5% for 6 months, sampled and determined at the end of the 1st,2nd, 3rd and 6th month.
Crystalline Form B of Temozolomide (Form B0 prepared by the method of EXAMPLE 6) was sealed with a polyethylene film bag and placed under conditions of 40±2° C. and a relative humidity of 75±5% for 6 months, sampled and determined at the end of the 1st, 2nd, 3rd and 6th month.
Crystalline Form C of Temozolomide (Form C prepared by the method of EXAMPLE 14) was sealed with a polyethylene film bag and placed under conditions of 40±2° C. and a relative humidity of 75±5% for 6 months, sampled and determined at the end of the 1st, 2nd, 3rd and 6th month.

Structures are written as SMILES.

Results on three compounds are retold here after patent US9714250B2, “Crystalline forms of temozolomide and the method for preparing same” (Jiangsu Tasly Diyi Pharmaceutical Co., Ltd., priority 2013, dated 2017).

For the compound `Cn1nnc2c(C(N)=O)ncn2c1=O` [Form A, Temozolomide], the “Stability in the accelerated test (conclusion)” value (“Stability” below) is recorded as “stable”. Besides, under “0th month”, the Appearance and color entry is listed as “White powder”; the Content turned out to be 99.94%; the Related substances result is on record as “Not detected”. For the same compound, where the note is “1st month”, the Appearance and color entry is on record as “White powder”; the Content is reported as 99.81%; the Related substances entry is given as “Not detected”. Further, under “2nd month”, the Appearance and color result was “White powder”; the Content amounted to 99.64%; the Related substances entry was “Not detected”. For the setting “3rd month”, the Appearance and color entry is on record as “White powder”; the Content was 99.92%; the Related substances result is reported as “Not detected”. For the setting “6th month”, the Appearance and color result is listed as “White powder”; the Content came to 99.62%; the Related substances entry is “Not detected”.
As for `Cn1nnc2c(C(N)=O)ncn2c1=O` [Form B, Temozolomide], the “Stability” value is listed as “stable”. In addition, where the note is “0th month”, the Appearance and color entry is given as “White powder”; the Content was 99.97%; the Related substances result is “Not detected”. Besides, for the setting “1st month”, the Appearance and color result is given as “White powder”; the Content was found to be 99.71%; the Related substances entry is on record as “Not detected”. In addition, under “2nd month”, the Appearance and color result was “White powder”; the Content came out at 99.82%; the Related substances entry was “Not detected”. For the same compound, under “3rd month”, the Appearance and color entry is recorded as “White powder”; the Content is 99.73%; the Related substances result is on record as “Not detected”. For the setting “6th month”, the Appearance and color result was “White powder”; the Content was 99.85%; the Related substances result is listed as “Not detected”.
On to `Cn1nnc2c(C(N)=O)ncn2c1=O` [Form C, Temozolomide], for which the “Stability” value was “stable”. Further, under “0th month”, the Appearance and color entry was “White powder”; the Content is listed as 99.91%; the Related substances result is “Not detected”. In addition, under “1st month”, the Appearance and color entry is given as “White powder”; the Content came out at 99.61%; the Related substances result was “Not detected”. For the same compound, for the setting “2nd month”, the Appearance and color result is “White powder”; the Content was determined as 99.87%; the Related substances entry is recorded as “Not detected”. For the same compound, where the note is “3rd month”, the Appearance and color result is listed as “White powder”; the Content is listed as 99.93%; the Related substances entry is recorded as “Not detected”. Also, for the setting “6th month”, the Appearance and color result was “White powder”; the Content worked out at 99.65%; the Related substances entry is reported as “Not detected”.
